Source: patent US20260207623A1, “USE OF ESTETROL IN HEPATICALLY IMPAIRED PATIENTS” (ESTETRA SRL, priority 2022, published 2026)
Entries after “also recorded” stand apart in the source; their conditions may differ.

What was measured:
Type in all cases: in vivo, human
[1] = tested on: C-Terminal Telopeptide (CTX-1); experiment: Example 2 section F: C-terminal telopeptide (CTX-1), marker of bone resorption, at 15 mg and 20 mg daily doses
Procedure: (§1) In order to better assess the potential for increasing the daily dose beyond the minimum effective dose of 15 mg estetrol monohydrate daily, a number of parameters were followed in a study where estetrol monohydrate was administered at the increased dose of 20 mg per day.
6. C-Terminal Telopeptide (CTX-1) (Ng/L)
CTX-1 is a specific marker of bone resorption.

fasting glucose = experiment: Example 3: fasting glucose, change from baseline to week 12
[2] = tested on: triglycerides, glucose, cholesterol, HDL-cholesterol, LDL-cholesterol level; experiment: Example 2 section F: lipid parameters and glucose level (triglycerides, glucose, cholesterol, HDL-cholesterol, LDL-cholesterol) at 15 mg and 20 mg daily doses
Procedure: as §1
1. Triglycerides Level (mmol/L)
2. Glucose Level (mmol/L)
3. Cholesterol Level (mmol/L)
4. HDL-Cholesterol Level (mmol/L)
5. LDL-Cholesterol Level (mmol/L)

Haemoglobin A1C = experiment: Example 3: haemoglobin A1C, change from baseline to week 12
[3] = 15 mg and 20 mg, after 12 weeks, monohydrate

C[C@]12CC[C@@H]3c4ccc(O)cc4CC[C@H]3[C@@H]1[C@@H](O)[C@@H](O)[C@@H]2O [E4 monohydrate, estetrol monohydrate]
bone resorption (CTX-1) ([1]; 15 mg daily dose): small decrease of bone resorption | bone resorption (CTX-1) ([1]; 20 mg daily dose, after 28 days of treatment, compared with 15 mg): more pronounced | fasting glucose levels (fasting glucose; [3]): decreased; also recorded: reduced | Fasting Glucose, mean (fasting glucose; 15 mg, Baseline): 5.156 | Fasting Glucose, mean (fasting glucose; 15 mg, Week 12): 5.057 | Fasting Glucose, mean (fasting glucose; 20 mg, Baseline): 5.177 | Fasting Glucose, mean (fasting glucose; 20 mg, Week 12): 5.057 | Cholesterol level, Baseline, Mean ([2]; 15 mg daily): 5.51 mmol/L | Cholesterol level, Baseline, Median ([2]; 15 mg daily): 5.62 mmol/L | Glucose level, Baseline, Mean ([2]; 15 mg daily): 4.77 mmol/L | Glucose level, Baseline, Median ([2]; 15 mg daily): 4.72 mmol/L | HDL-Cholesterol level, Baseline, Mean ([2]; 15 mg daily): 1.73 mmol/L | HDL-Cholesterol level, Baseline, Median ([2]; 15 mg daily): 1.66 mmol/L | LDL-Cholesterol level, Baseline, Mean ([2]; 15 mg daily): 3.05 mmol/L | LDL-Cholesterol level, Baseline, Median ([2]; 15 mg daily): 3.22 mmol/L | Triglycerides level, Baseline, Mean ([2]; 15 mg daily): 1.32 mmol/L | Triglycerides level, Baseline, Median ([2]; 15 mg daily): 1.21 mmol/L | Cholesterol level, End Of Treatment Actual Change from Baseline, Mean ([2]; 15 mg daily, after 12 weeks): 0.12 mmol/L | Cholesterol level, End Of Treatment Actual Change from Baseline, Median ([2]; 15 mg daily, after 12 weeks): 0.08 mmol/L | Cholesterol level, End Of Treatment Actual Value, Mean ([2]; 15 mg daily, after 12 weeks): 5.63 mmol/L | Cholesterol level, End Of Treatment Actual Value, Median ([2]; 15 mg daily, after 12 weeks): 5.71 mmol/L | Glucose level, End Of Treatment Actual Change from Baseline, Mean ([2]; 15 mg daily, after 12 weeks): 0.02 mmol/L | Glucose level, End Of Treatment Actual Change from Baseline, Median ([2]; 15 mg daily, after 12 weeks): 0.05 mmol/L | Glucose level, End Of Treatment Actual Value, Mean ([2]; 15 mg daily, after 12 weeks): 4.79 mmol/L | Glucose level, End Of Treatment Actual Value, Median ([2]; 15 mg daily, after 12 weeks): 4.77 mmol/L | HDL-Cholesterol level, End Of Treatment Actual Change from Baseline, Mean ([2]; 15 mg daily, after 12 weeks): 0.16 mmol/L | HDL-Cholesterol level, End Of Treatment Actual Change from Baseline, Median ([2]; 15 mg daily, after 12 weeks): 0.17 mmol/L | HDL-Cholesterol level, End Of Treatment Actual Value, Mean ([2]; 15 mg daily, after 12 weeks): 1.89 mmol/L | HDL-Cholesterol level, End Of Treatment Actual Value, Median ([2]; 15 mg daily, after 12 weeks): 1.81 mmol/L | LDL-Cholesterol level, End Of Treatment Actual Change from Baseline, Mean ([2]; 15 mg daily, after 12 weeks): 0.09 mmol/L | LDL-Cholesterol level, End Of Treatment Actual Change from Baseline, Median ([2]; 15 mg daily, after 12 weeks): 0.10 mmol/L | LDL-Cholesterol level, End Of Treatment Actual Value, Mean ([2]; 15 mg daily, after 12 weeks): 3.14 mmol/L | LDL-Cholesterol level, End Of Treatment Actual Value, Median ([2]; 15 mg daily, after 12 weeks): 3.25 mmol/L | Triglycerides level, End Of Treatment Actual Change from Baseline, Mean ([2]; 15 mg daily, after 12 weeks): 0.20 mmol/L | Triglycerides level, End Of Treatment Actual Change from Baseline, Median ([2]; 15 mg daily, after 12 weeks): 0.15 mmol/L | Triglycerides level, End Of Treatment Actual Value, Mean ([2]; 15 mg daily, after 12 weeks): 1.61 mmol/L | Triglycerides level, End Of Treatment Actual Value, Median ([2]; 15 mg daily, after 12 weeks): 1.40 mmol/L | Cholesterol level, Baseline, Mean ([2]; 20 mg daily): 6.27 mmol/L | Cholesterol level, Baseline, Median ([2]; 20 mg daily): 6.25 mmol/L | Glucose level, Baseline, Mean ([2]; 20 mg daily): 5.53 mmol/L | Glucose level, Baseline, Median ([2]; 20 mg daily): 5.60 mmol/L | HDL-Cholesterol level, Baseline, Mean ([2]; 20 mg daily): 1.68 mmol/L | HDL-Cholesterol level, Baseline, Median ([2]; 20 mg daily): 1.60 mmol/L | LDL-Cholesterol level, Baseline, Mean ([2]; 20 mg daily): 3.94 mmol/L | LDL-Cholesterol level, Baseline, Median ([2]; 20 mg daily): 4.00 mmol/L | Triglycerides level, Baseline, Mean ([2]; 20 mg daily): 1.43 mmol/L | Triglycerides level, Baseline, Median ([2]; 20 mg daily): 1.40 mmol/L | lipid parameters and glucose level ([2]; 20 mg daily dose in place of 15 mg daily dose): do not behave significantly differently | Cholesterol level, End Of Treatment Actual Change from Baseline, Mean ([2]; 20 mg daily, after 28 days): -0.18 mmol/L | Cholesterol level, End Of Treatment Actual Change from Baseline, Median ([2]; 20 mg daily, after 28 days): -0.20 mmol/L | Cholesterol level, End Of Treatment Actual Value, Mean ([2]; 20 mg daily, after 28 days): 6.09 mmol/L | Cholesterol level, End Of Treatment Actual Value, Median ([2]; 20 mg daily, after 28 days): 6.10 mmol/L | Glucose level, End Of Treatment Actual Change from Baseline, Mean ([2]; 20 mg daily, after 28 days): -0.10 mmol/L | Glucose level, End Of Treatment Actual Change from Baseline, Median ([2]; 20 mg daily, after 28 days): -0.15 mmol/L | Glucose level, End Of Treatment Actual Value, Mean ([2]; 20 mg daily, after 28 days): 5.44 mmol/L | Glucose level, End Of Treatment Actual Value, Median ([2]; 20 mg daily, after 28 days): 5.60 mmol/L | HDL-Cholesterol level, End Of Treatment Actual Change from Baseline, Mean ([2]; 20 mg daily, after 28 days): 0.29 mmol/L | HDL-Cholesterol level, End Of Treatment Actual Change from Baseline, Median ([2]; 20 mg daily, after 28 days): 0.35 mmol/L | HDL-Cholesterol level, End Of Treatment Actual Value, Mean ([2]; 20 mg daily, after 28 days): 1.97 mmol/L | HDL-Cholesterol level, End Of Treatment Actual Value, Median ([2]; 20 mg daily, after 28 days): 1.90 mmol/L | LDL-Cholesterol level, End Of Treatment Actual Change from Baseline, Mean ([2]; 20 mg daily, after 28 days): -0.51 mmol/L | LDL-Cholesterol level, End Of Treatment Actual Change from Baseline, Median ([2]; 20 mg daily, after 28 days): -0.65 mmol/L | LDL-Cholesterol level, End Of Treatment Actual Value, Mean ([2]; 20 mg daily, after 28 days): 3.43 mmol/L | LDL-Cholesterol level, End Of Treatment Actual Value, Median ([2]; 20 mg daily, after 28 days): 3.45 mmol/L | Triglycerides level, End Of Treatment Actual Change from Baseline, Mean ([2]; 20 mg daily, after 28 days): 0.10 mmol/L | Triglycerides level, End Of Treatment Actual Change from Baseline, Median ([2]; 20 mg daily, after 28 days): 0.10 mmol/L | Triglycerides level, End Of Treatment Actual Value, Mean ([2]; 20 mg daily, after 28 days): 1.53 mmol/L | Triglycerides level, End Of Treatment Actual Value, Median ([2]; 20 mg daily, after 28 days): 1.40 mmol/L | haemoglobin A1C levels (Haemoglobin A1C; [3]): decreased; also recorded: reduced | Haemoglobin A1C, mean (Haemoglobin A1C; 15 mg, Baseline): 5.625 | Haemoglobin A1C, mean (Haemoglobin A1C; 15 mg, Week 12): 5.504 | Haemoglobin A1C, mean (Haemoglobin A1C; 20 mg, Baseline): 5.605 | Haemoglobin A1C, mean (Haemoglobin A1C; 20 mg, Week 12): 5.458
